Reference: US9890153B2, “Substituted 1H-pyrrolo [2, 3-b] pyridine and 1H-pyrazolo [3, 4-b] pyridine derivatives as salt inducible kinase 2 (SIK2) inhibitors” (Arrien Pharmaceuticals LLC, priority 2012, dated 2018)
pIC50: −log10 of the molar value.

Experiments:
Assay type in all cases: biochemical
[1] = molecular target: SIK2 (QIK) (SEQ ID NO: 11) (Homo sapiens, UniProt Q9H0K1); assay: SIK2 kinase assay (radiometric, 10 μM ATP); settings: read-out: SIK2 (QIK) (SEQ ID NO: 11) kinase inhibition result
Method: Procedure: Enzyme was incubated with substrate peptide in reaction buffer in the presence and absence of test compounds or Staurosporine. All additions were done on ice, followed by the addition of ATP mix. Wells were uniformly mixed using an Eppendorff plate shaker and incubated at 30° C. for 20 min, and stopped by the addition of 5 μL of 3% phosphoric acid. Volume was increased to 100 μL by adding 0.8% phosphoric acid which was then transferred to PC filter mats (Millipore), pre-equilibrated with 70% ethanol and water. Plates were washed thrice with 100 μL 0.8% phosphoric acid and dried for an hour at 60° C.

SIK1 (SEQ ID NO: 10) = molecular target: T1, SIK1 (SEQ ID NO: 10) (Homo sapiens, UniProt P57059); assay: Protein kinase assay, SIK1; settings: read-out: SIK1 (SEQ ID NO: 10) kinase inhibition result
T1 construct: Reaction Biology Corporation (assay service, HotSpot panel)
Method: (§1) Briefly, specific kinase/substrate pairs along with required cofactors were prepared in reaction buffer; 20 mM Hepes (pH 7.5), 10 mMmgCl2, 1 mM EGTA, 0.02% Brij35, 0.02 mg/ml BSA, 0.1 mM Na3VO4, 2 mM DTT, 1% DMSO. Compounds were delivered into the reaction, followed ˜20 min later by addition of a mixture of ATP (Sigma) and 33P ATP (PerkinElmer) to a final concentration of 10 μM. […] IC50 values and curve fits were obtained using Prism (GraphPad Software). Kinome tree representations were prepared using Kinome Mapper (http://www.reactionbiology.com/apps/kinome/mapper/LaunchKinome.htm).

[2] = molecular target: T2, SIK3 (QSK) (SEQ ID NO: 24) (Homo sapiens, UniProt Q9Y2K2); assay: Protein kinase assay, SIK3; settings: read-out: SIK3 (QSK) (SEQ ID NO: 24) kinase inhibition result
T2 construct: Reaction Biology Corporation (assay service, HotSpot panel)
Method: as §1

T1 sequence (P57059 whole entry): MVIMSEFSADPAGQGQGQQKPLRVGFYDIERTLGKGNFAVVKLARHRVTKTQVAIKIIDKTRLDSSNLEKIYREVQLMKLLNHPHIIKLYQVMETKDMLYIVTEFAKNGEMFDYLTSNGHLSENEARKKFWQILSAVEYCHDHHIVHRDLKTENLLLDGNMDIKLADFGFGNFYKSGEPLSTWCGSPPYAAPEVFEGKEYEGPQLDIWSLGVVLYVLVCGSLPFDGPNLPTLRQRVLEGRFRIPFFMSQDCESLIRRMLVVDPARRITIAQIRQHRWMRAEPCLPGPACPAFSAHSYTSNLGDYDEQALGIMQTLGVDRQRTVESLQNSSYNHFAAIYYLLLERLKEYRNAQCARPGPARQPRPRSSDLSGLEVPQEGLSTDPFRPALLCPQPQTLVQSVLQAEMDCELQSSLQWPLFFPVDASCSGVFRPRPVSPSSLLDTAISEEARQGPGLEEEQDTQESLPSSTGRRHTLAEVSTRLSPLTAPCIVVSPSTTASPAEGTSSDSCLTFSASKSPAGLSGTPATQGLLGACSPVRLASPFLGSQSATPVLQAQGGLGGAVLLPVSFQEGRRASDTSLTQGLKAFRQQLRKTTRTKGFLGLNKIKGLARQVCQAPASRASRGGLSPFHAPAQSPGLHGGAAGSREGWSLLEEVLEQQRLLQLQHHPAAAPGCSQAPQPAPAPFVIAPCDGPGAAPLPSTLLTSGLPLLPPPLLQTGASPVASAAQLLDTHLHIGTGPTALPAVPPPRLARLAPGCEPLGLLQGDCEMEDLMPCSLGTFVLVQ
Sequence of SIK2 (QIK) (SEQ ID NO: 11) (Q9H0K1 whole entry): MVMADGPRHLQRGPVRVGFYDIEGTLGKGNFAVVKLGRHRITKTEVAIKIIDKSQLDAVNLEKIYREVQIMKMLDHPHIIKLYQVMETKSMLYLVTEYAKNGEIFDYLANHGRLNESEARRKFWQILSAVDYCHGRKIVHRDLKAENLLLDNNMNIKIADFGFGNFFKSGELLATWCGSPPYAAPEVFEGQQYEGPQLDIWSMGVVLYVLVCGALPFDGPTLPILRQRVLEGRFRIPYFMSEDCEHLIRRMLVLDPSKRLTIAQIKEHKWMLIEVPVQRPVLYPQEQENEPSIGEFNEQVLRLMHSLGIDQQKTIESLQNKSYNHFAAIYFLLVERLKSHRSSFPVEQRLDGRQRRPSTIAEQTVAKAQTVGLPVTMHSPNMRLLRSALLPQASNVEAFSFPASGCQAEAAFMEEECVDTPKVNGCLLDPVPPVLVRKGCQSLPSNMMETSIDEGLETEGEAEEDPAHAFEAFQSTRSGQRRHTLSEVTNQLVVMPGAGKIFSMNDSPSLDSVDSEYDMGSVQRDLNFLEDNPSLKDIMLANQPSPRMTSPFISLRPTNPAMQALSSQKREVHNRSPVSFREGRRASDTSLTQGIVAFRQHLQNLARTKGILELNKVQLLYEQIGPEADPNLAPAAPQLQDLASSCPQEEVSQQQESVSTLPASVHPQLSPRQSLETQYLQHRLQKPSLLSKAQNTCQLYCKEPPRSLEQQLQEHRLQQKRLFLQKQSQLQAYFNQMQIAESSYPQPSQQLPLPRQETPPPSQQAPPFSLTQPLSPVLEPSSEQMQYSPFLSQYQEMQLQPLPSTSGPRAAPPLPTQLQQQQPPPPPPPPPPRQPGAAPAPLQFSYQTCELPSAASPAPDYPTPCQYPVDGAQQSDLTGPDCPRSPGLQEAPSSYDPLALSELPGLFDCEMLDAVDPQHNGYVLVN
T2 sequence (Q9Y2K2 whole entry): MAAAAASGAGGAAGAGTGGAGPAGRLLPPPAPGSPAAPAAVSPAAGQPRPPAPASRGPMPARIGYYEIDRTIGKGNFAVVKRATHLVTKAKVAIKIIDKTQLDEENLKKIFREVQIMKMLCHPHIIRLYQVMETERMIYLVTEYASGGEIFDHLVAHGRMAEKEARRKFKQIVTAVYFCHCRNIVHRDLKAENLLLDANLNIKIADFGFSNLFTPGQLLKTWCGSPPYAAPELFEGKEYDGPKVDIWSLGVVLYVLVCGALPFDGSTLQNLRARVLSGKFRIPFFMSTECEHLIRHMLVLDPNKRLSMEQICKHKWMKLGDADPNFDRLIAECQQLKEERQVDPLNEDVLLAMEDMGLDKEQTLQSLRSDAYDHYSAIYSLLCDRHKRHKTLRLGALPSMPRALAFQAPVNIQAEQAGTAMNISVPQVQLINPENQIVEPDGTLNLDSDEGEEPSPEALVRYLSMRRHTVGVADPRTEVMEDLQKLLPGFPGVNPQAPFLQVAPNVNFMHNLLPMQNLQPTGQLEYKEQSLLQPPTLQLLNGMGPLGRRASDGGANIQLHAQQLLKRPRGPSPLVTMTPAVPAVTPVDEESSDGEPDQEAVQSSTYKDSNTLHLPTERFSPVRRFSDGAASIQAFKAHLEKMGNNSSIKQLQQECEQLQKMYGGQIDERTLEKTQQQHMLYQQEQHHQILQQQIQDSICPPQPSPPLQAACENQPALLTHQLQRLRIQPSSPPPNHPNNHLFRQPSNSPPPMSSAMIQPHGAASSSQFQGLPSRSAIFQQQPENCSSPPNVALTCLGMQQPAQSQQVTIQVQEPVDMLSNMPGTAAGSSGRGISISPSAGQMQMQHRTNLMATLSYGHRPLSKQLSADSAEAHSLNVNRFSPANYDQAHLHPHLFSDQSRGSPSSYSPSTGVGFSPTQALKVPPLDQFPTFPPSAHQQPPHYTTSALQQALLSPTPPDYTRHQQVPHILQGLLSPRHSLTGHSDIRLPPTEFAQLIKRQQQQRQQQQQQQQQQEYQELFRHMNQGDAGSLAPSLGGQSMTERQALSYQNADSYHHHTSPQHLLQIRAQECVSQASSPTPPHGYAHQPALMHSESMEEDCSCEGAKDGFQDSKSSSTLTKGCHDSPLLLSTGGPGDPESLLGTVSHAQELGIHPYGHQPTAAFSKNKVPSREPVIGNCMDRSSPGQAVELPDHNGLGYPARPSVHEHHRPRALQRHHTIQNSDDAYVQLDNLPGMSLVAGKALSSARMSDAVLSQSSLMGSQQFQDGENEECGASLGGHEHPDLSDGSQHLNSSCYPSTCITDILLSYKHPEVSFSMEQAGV

Row | SMILES | pIC50 [1] | pIC50 (SIK1 (SEQ ID NO: 10)) | pIC50 [2]
1 | CCOc1ccccc1-c1n[nH]c2nccc(-c3ccsc3)c12 [Example 5, 3-(2-ethoxyphenyl)-4-(thiophen-3-yl)-1H-pyrazolo[3,4-b]pyridine] | < 7.00 | < 6.00 | > 7.00
2 | COc1cc(Cl)ccc1-c1n[nH]c2nccc(-c3ccsc3)c12 [Example 6, 3-(4-chloro-2-methoxyphenyl)-4-(thiophen-3-yl)-1H-pyrazolo[3,4-b]pyridine] | < 7.00 | < 7.00 | < 6.00
3 | COc1ccccc1-c1c[nH]c2nccc(-c3ccsc3)c12 [Example 17, 3-(2-methoxyphenyl)-4-(thiophen-3-yl)-1H-pyrrolo[2,3-b]pyridine] | < 7.00 | < 7.00 | < 7.00
4 | CCN(CC)S(=O)(=O)c1ccccc1-c1c[nH]c2nccc(-c3ccsc3)c12 [Example 95, N,N-diethyl-2-(4-(thiophen-3-yl)-1H-pyrrolo[2,3-b]pyridin-3-yl)benzenesulfonamide] | < 6.00 | < 6.00 | < 6.00
5 | O=S(=O)(c1ccc(-c2c[nH]c3nccc(-c4ccsc4)c23)cc1)N1CCC1 [Example 96, 3-(4-(azetidin-1-ylsulfonyl)phenyl)-4-(thiophen-3-yl)-1H-pyrrolo[2,3-b]pyridine] | < 6.00 | < 6.00 | < 6.00
6 | O=S(=O)(c1cccc(-c2c[nH]c3nccc(-c4ccsc4)c23)c1)N1CCCC1 [Example 97, 3-(3-(pyrrolidin-1-ylsulfonyl)phenyl)-4-(thiophen-3-yl)-1H-pyrrolo[2,3-b]pyridine] | < 6.00 | < 6.00 | < 6.00
7 | O=S(=O)(c1ccc(-c2c[nH]c3nccc(-c4ccsc4)c23)cc1)N1CCCC1 [Example 98, 3-(4-(pyrrolidin-1-ylsulfonyl)phenyl)-4-(thiophen-3-yl)-1H-pyrrolo[2,3-b]pyridine] | < 6.00 | < 6.00 | < 6.00
8 | COc1ccccc1-c1c[nH]c2ncc(-c3ccc(C)o3)cc12 [Example 115, 3-(2-methoxyphenyl)-5-(5-methylfuran-2-yl)-1H-pyrrolo[2,3-b]pyridine] | > 7.00 | < 7.00 | < 6.00
9 | Cc1ccc(-c2ccnc3[nH]cc(-c4cccc(F)c4Cl)c23)o1 [Example 116, 3-(2-chloro-3-fluorophenyl)-4-(5-methylfuran-2-yl)-1H-pyrrolo[2,3-b]pyridine] | < 7.00 | < 6.00 | < 6.00
10 | COc1c(F)cccc1-c1c[nH]c2nccc(-c3ccsc3)c12 [Example 120, 3-(3-fluoro-2-methoxyphenyl)-4-(thiophen-3-yl)-1H-pyrrolo[2,3-b]pyridine] | > 7.00 | < 7.00 | < 7.00
11 | Oc1ccccc1-c1c[nH]c2ncc(-c3ccsc3)cc12 [Example 123, 2-(5-(thiophen-3-yl)-1H-pyrrolo[2,3-b]pyridin-3-yl)phenol] | < 7.00 | < 7.00 | < 7.00
12 | Oc1c(F)cc(F)cc1-c1c[nH]c2ncc(-c3ccsc3)cc12 [Example 124, 2,4-difluoro-6-(5-(thiophen-3-yl)-1H-pyrrolo[2,3-b]pyridin-3-yl)phenol] | < 7.00 | < 7.00 | < 7.00
13 | Cc1ccc(-c2cnc3[nH]cc(-c4cccc(F)c4O)c3c2)o1 [Example 128, 2-fluoro-6-(5-(5-methylfuran-2-yl)-1H-pyrrolo[2,3-b]pyridin-3-yl)phenol] | > 7.00 | < 7.00 | < 7.00
14 | Fc1cccc(-c2c[nH]c3ncc(-c4ccc(CN5CCOCC5)s4)cc23)c1Cl [Example 133] | > 7.00 | < 6.00 | < 7.00
15 | Cc1nc(Nc2cnc3[nH]cc(-c4cccc(F)c4Cl)c3c2)sc1Cl [Example 134, 5-chloro-N-(3-(2-chloro-3-fluorophenyl)-1H-pyrrolo[2,3-b]pyridin-5-yl)-4-methylthiazol-2-amine] | < 7.00 | < 7.00 | < 6.00
16 | CN(C)S(=O)(=O)c1cccc(-c2cnc3[nH]cc(-c4cccc(F)c4Cl)c3c2)c1 [Example 135, 3-(3-(2-chloro-3-fluorophenyl)-1H-pyrrolo[2,3-b]pyridin-5-yl)-N,N-dimethylbenzenesulfonamide] | > 7.00 | < 7.00 | < 7.00

Row | SMILES | pIC50 [1] | pIC50 (SIK1 (SEQ ID NO: 10)) | pIC50 [2]
17 | FC1(F)CN(c2c[nH]c3ncc(-c4ccsc4)cc23)C1 [Example 136, 3-(3,3-difluoroazetidin-1-yl)-5-(thiophen-3-yl)-1H-pyrrolo[2,3-b]pyridine] | > 7.00 | < 7.00 | < 7.00
18 | Fc1c(-c2c[nH]c3ncc(-c4ccsc4)cc23)ccnc1Cl [Example 141, 3-(2-chloro-3-fluoropyridin-4-yl)-5-(thiophen-3-yl)-1H-pyrrolo[2,3-b]pyridine] | > 7.00 | < 6.00 | < 7.00
19 | COc1c(F)cccc1-c1c[nH]c2ncc(-c3ccc(CN4CCOCC4)s3)cc12 [Example 142, 4-((5-(3-(3-fluoro-2-methoxyphenyl)-1H-pyrrolo[2,3-b]pyridin-5-yl)thiophen-2-yl)methyl)morpholine] | > 7.00 | < 6.00 | > 7.00
20 | COc1c(F)cccc1-c1c[nH]c2ncc(-c3ccc(C)o3)cc12 [Example 168, 3-(3-fluoro-2-methoxyphenyl)-5-(5-methylfuran-2-yl)-1H-pyrrolo[2,3-b]pyridine] | > 7.00 | < 6.00 | < 6.00
21 | COc1c(F)cccc1-c1c[nH]c2ncc(-c3ccc(CN4CCCC4)s3)cc12 [Example 174, 3-(3-fluoro-2-methoxyphenyl)-5-(5-(pyrrolidin-1-ylmethyl)thiophen-2-yl)-1H-pyrrolo[2,3-b]pyridine] | > 7.00 | < 6.00 | < 7.00
22 | COc1c(F)cccc1-c1c[nH]c2ncc(-c3ccc(CN4CCCCC4)s3)cc12 [Example 175, 3-(3-fluoro-2-methoxyphenyl)-5-(5-(piperidin-1-ylmethyl)thiophen-2-yl)-1H-pyrrolo[2,3-b]pyridine] | > 7.00 | < 6.00 | < 7.00
23 | COc1c(F)cccc1-c1c[nH]c2ncc(-c3cnc(N4CCOCC4)s3)cc12 [Example 176, 4-(5-(3-(3-fluoro-2-methoxyphenyl)-1H-pyrrolo[2,3-b]pyridin-5-yl)thiazol-2-yl)morpholine] | > 7.00 | < 6.00 | < 7.00
24 | COc1c(F)cc(F)cc1-c1c[nH]c2ncc(-c3ccc(CN4CCCC4)s3)cc12 [Example 177, 3-(3,5-difluoro-2-methoxyphenyl)-5-(5-(pyrrolidin-1-ylmethyl)thiophen-2-yl)-1H-pyrrolo[2,3-b]pyridine] | > 7.00 | < 6.00 | < 7.00
25 | COc1c(F)cc(F)cc1-c1c[nH]c2ncc(-c3ccc(CN4CCCCC4)s3)cc12 [Example 178, 3-(3,5-difluoro-2-methoxyphenyl)-5-(5-(piperidin-1-ylmethyl)thiophen-2-yl)-1H-pyrrolo[2,3-b]pyridine] | > 7.00 | < 6.00 | < 7.00
26 | COc1c(F)cc(F)cc1-c1c[nH]c2ncc(-c3cnc(N4CCOCC4)s3)cc12 [Example 179, 4-(5-(3-(3,5-difluoro-2-methoxyphenyl)-1H-pyrrolo[2,3-b]pyridin-5-yl)thiazol-2-yl)morpholine] | > 7.00 | < 6.00 | < 7.00
27 | COc1c(F)cccc1-c1c[nH]c2ncc(-c3cccc(S(=O)(=O)N(C)C(C)(C)C)c3)cc12 [Example 180] | > 7.00 | < 6.00 | < 7.00
28 | COc1c(F)cc(F)cc1-c1c[nH]c2ncc(-c3cccc(S(=O)(=O)N(C)C(C)(C)C)c3)cc12 [Example 181, N-(tert-butyl)-3-(3-(3,5-difluoro-2-methoxyphenyl)-1H-pyrrolo[2,3-b]pyridin-5-yl)-N-methylbenzenesulfonamide] | > 7.00 | < 6.00 | < 7.00
29 | COc1c(F)cccc1-c1c[nH]c2ncc(-c3cccc(S(=O)(=O)N4CCCC4)c3)cc12 [Example 182, 3-(3-fluoro-2-methoxyphenyl)-5-(3-(pyrrolidin-1-ylsulfonyl)phenyl)-1H-pyrrolo[2,3-b]pyridine] | > 7.00 | < 6.00 | < 7.00
30 | COc1c(F)cc(F)cc1-c1c[nH]c2ncc(-c3cccc(S(=O)(=O)N4CCCC4)c3)cc12 [Example 183, 3-(3,5-difluoro-2-methoxyphenyl)-5-(3-(pyrrolidin-1-ylsulfonyl)phenyl)-1H-pyrrolo[2,3-b]pyridine] | > 7.00 | < 6.00 | < 7.00
31 | COc1c(F)cccc1-c1c[nH]c2ncc(-c3cccc(S(=O)(=O)N(C)C)c3)cc12 [Example 184, 3-(3-(3-fluoro-2-methoxyphenyl)-1H-pyrrolo[2,3-b]pyridin-5-yl)-N,N-dimethylbenzenesulfonamide] | > 7.00 | < 6.00 | < 7.00
